# Assays:
# giant foxtail = test: Test B pre/postemergence giant foxtail; type: in vivo, Setaria faberii
# In short: (§1)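 Test chemicals in a non-phytotoxic solvent mixture with surfactant were sprayed preemergence onto planted seeds and postemergence onto plants 2 to 18 cm tall (1- to 4-leaf stage). After twelve to sixteen days in a greenhouse, injury was visually rated against untreated controls from 0 (no effect) to 10 (complete control).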
# morningglory = test: Test B pre/postemergence morningglory; type: in vivo, Ipomoea hederacea
# In short: as §1
# pigweed = test: Test B pre/postemergence pigweed; type: in vivo, Amaranthus retroflexus
# In short: as §1
# rape = test: Test B pre/postemergence rape; type: in vivo, Brassica napus
# In short: as §1
# [1] = Postemergence, Rate 125 g/ha, scale of 0 to 10 where 0 is no effect and 10 is complete control
# [2] = Preemergence, Rate 62 g/ha, scale 0 to 10 (0 no effect, 10 complete control)
# [3] = Preemergence, Rate 125 g/ha, 0 is no effect, 10 is complete control
# [4] = Preemergence, Rate 250 g/ha, scale 0 to 10, 0 is no effect, 10 is complete control
# [5] = Preemergence, Rate 500 g/ha, scale 0 to 10 (0 no effect, 10 complete control)
# [6] = Rate 62 g/ha, Postemergence, scale of 0 to 10 where 0 is no effect and 10 is complete control
# [7] = Rate 250 g/ha, Postemergence, scale 0 to 10, 0 is no effect, 10 is complete control
# [8] = Rate 500 g/ha, Postemergence, scale 0 to 10
# [9] = Postemergence, Rate 62 g/ha, scale 0 to 10, 0 is no effect, 10 is complete control
# [10] = Postemergence, Rate 250 g/ha, scale 0 to 10, 0 no effect, 10 complete control
# [11] = Preemergence, Rate 31 g/ha, visual rating, scale 0 to 10 (0 no effect, 10 complete control)
# [12] = Preemergence, Rate 62 g/ha, scale 0 to 10, 0 is no effect, 10 is complete control
# [13] = Preemergence, Rate 125 g/ha, scale 0 to 10 (0 no effect, 10 complete control)
# [14] = Preemergence, Rate 250 g/ha, scale of 0 to 10 where 0 is no effect and 10 is complete control
# [15] = Rate 31 g/ha, Postemergence, scale 0 to 10
# [16] = Rate 125 g/ha, Postemergence, scale 0 to 10, 0 no effect, 10 complete control
# [17] = Postemergence, Rate 125 g/ha, scale 0 to 10, 0 is no effect, 10 is complete control
# [18] = Postemergence, Rate 250 g/ha, scale 0 to 10, 0 is no effect, 10 is complete control
# [19] = Preemergence, Rate 500 g/ha, scale of 0 to 10 where 0 is no effect and 10 is complete control
# [20] = Rate 500 g/ha, Postemergence, scale 0 to 10, 0 no effect, 10 complete control
# [21] = Postemergence, Rate 1000 g/ha, scale 0 to 10 (0 no effect, 10 complete control)
# [22] = Preemergence, Rate 500 g/ha, scale 0 (no effect) to 10 (complete control)
# [23] = Rate 500 g/ha, Postemergence, 0 to 10 scale (0 no effect, 10 complete control)
# [24] = Rate 1000 g/ha, Preemergence, scale 0 to 10 (0 no effect, 10 complete control)
# [25] = Rate 125 g/ha, Preemergence, scale of 0 to 10 where 0 is no effect and 10 is complete control
structure (smiles),measurement,setting,value
CC(C)N(C(=O)n1oc(=O)n(Cc2ccccc2Cl)c1=O)C1=CCCCC1 [Compound 145],Giant foxtail plant response rating,giant foxtail; [1],0
same,Giant foxtail plant response rating,giant foxtail; [2],0
same,Giant foxtail plant response rating (0 to 10 scale),giant foxtail; [3],3
same,Giant foxtail plant response rating,giant foxtail; [4],5
same,Giant foxtail plant response rating,giant foxtail; [5],8
same,Giant foxtail plant response rating,giant foxtail; [6],0
same,"Plant response rating, Giant foxtail",giant foxtail; [7],2
same,Giant foxtail plant response rating,giant foxtail; [8],4
same,Morningglory plant response rating,morningglory; [1],8
same,Morningglory plant response rating,morningglory; [2],0
same,Morningglory plant response rating (0 to 10 scale),morningglory; [3],0
same,Morningglory plant response rating,morningglory; [4],0
same,Morningglory plant response rating,morningglory; [5],1
same,Morningglory plant response rating,morningglory; [6],6
same,"Plant response rating, Morningglory",morningglory; [7],10
same,Morningglory plant response rating,morningglory; [8],10
same,Redroot pigweed plant response rating,pigweed; [1],0
same,Redroot pigweed plant response rating,pigweed; [2],0
same,Redroot pigweed plant response rating (0 to 10 scale),pigweed; [3],0
same,Redroot pigweed plant response rating,pigweed; [4],2
same,Redroot pigweed plant response rating,pigweed; [5],4
same,Redroot pigweed plant response rating,pigweed; [6],0
same,"Plant response rating, Redroot pigweed",pigweed; [7],0
same,Redroot pigweed plant response rating,pigweed; [8],2
same,Rape plant response rating,rape; [1],2
same,Rape plant response rating,rape; [2],0
same,Rape plant response rating (0 to 10 scale),rape; [3],0
same,Rape plant response rating,rape; [4],0
same,Rape plant response rating,rape; [5],0
same,Rape plant response rating,rape; [6],0
same,"Plant response rating, Rape",rape; [7],3
same,Rape plant response rating,rape; [8],3
CCN(C(=O)n1oc(=O)n(-c2ccc(F)cc2F)c1=O)C1CCCCC1 [Compound 23],Giant foxtail plant response rating,giant foxtail; [9],0
same,Giant foxtail plant response rating,giant foxtail; [10],2
same,Giant foxtail plant response rating,giant foxtail; [11],1
same,"Plant response rating, Giant foxtail",giant foxtail; [12],2
same,"Plant response rating, Giant foxtail",giant foxtail; [13],2
same,"Plant response rating, Giant foxtail",giant foxtail; [14],3
same,Giant foxtail plant response rating,giant foxtail; [15],0
same,Giant foxtail plant response rating,giant foxtail; [16],2
same,Morningglory plant response rating,morningglory; [9],1
same,Morningglory plant response rating,morningglory; [10],10
same,Morningglory plant response rating,morningglory; [11],0
same,"Plant response rating, Morningglory",morningglory; [12],0
same,"Plant response rating, Morningglory",morningglory; [13],0
same,"Plant response rating, Morningglory",morningglory; [14],0
same,Morningglory plant response rating,morningglory; [15],0
same,Morningglory plant response rating,morningglory; [16],8
same,Redroot pigweed plant response rating,pigweed; [9],0
same,Redroot pigweed plant response rating,pigweed; [10],0
same,Redroot pigweed plant response rating,pigweed; [11],0
same,"Plant response rating, Redroot pigweed",pigweed; [12],0
same,"Plant response rating, Redroot pigweed",pigweed; [13],0
same,"Plant response rating, Redroot pigweed",pigweed; [14],0
same,Redroot pigweed plant response rating,pigweed; [15],0
same,Redroot pigweed plant response rating,pigweed; [16],0
same,Rape plant response rating,rape; [9],0
same,Rape plant response rating,rape; [10],0
same,Rape plant response rating,rape; [11],0
same,"Plant response rating, Rape",rape; [12],0
same,"Plant response rating, Rape",rape; [13],0
same,"Plant response rating, Rape",rape; [14],0
same,Rape plant response rating,rape; [15],0
same,Rape plant response rating,rape; [16],0
CC(C)N(C(=O)n1oc(=O)n(C)c1=O)c1ccc(F)cc1F [Compound 368],"Plant response rating, Giant foxtail",giant foxtail; [17],8
same,"Plant response rating, Giant foxtail",giant foxtail; [18],9
same,"Plant response rating, Giant foxtail",giant foxtail; [2],10
same,Giant foxtail plant response rating (0 to 10 scale),"giant foxtail; Preemergence, Rate 125 g/ha",10
same,Giant foxtail plant response rating,giant foxtail; [14],10
same,Giant foxtail plant response rating,giant foxtail; [19],10
same,Giant foxtail plant response rating,giant foxtail; [6],8
same,"Plant response rating, Giant foxtail",giant foxtail; [20],9
same,"Plant response rating, Morningglory",morningglory; [17],4
same,"Plant response rating, Morningglory",morningglory; [18],5
same,"Plant response rating, Morningglory",morningglory; [2],0
same,Morningglory plant response rating (0 to 10 scale),"morningglory; Preemergence, Rate 125 g/ha",1
same,Morningglory plant response rating,morningglory; [14],3
same,Morningglory plant response rating,morningglory; [19],5
same,Morningglory plant response rating,morningglory; [6],2
same,"Plant response rating, Morningglory",morningglory; [20],7
same,"Plant response rating, Redroot pigweed",pigweed; [17],3
same,"Plant response rating, Redroot pigweed",pigweed; [18],4
same,"Plant response rating, Redroot pigweed",pigweed; [2],10
same,Redroot pigweed plant response rating (0 to 10 scale),"pigweed; Preemergence, Rate 125 g/ha",10
same,Redroot pigweed plant response rating,pigweed; [14],10
same,Redroot pigweed plant response rating,pigweed; [19],10
same,Redroot pigweed plant response rating,pigweed; [6],2
same,"Plant response rating, Redroot pigweed",pigweed; [20],7
same,"Plant response rating, Rape",rape; [17],0
same,"Plant response rating, Rape",rape; [18],2
same,"Plant response rating, Rape",rape; [2],0
same,Rape plant response rating (0 to 10 scale),"rape; Preemergence, Rate 125 g/ha",0
same,Rape plant response rating,rape; [14],6
same,Rape plant response rating,rape; [19],10
same,Rape plant response rating,rape; [6],0
same,"Plant response rating, Rape",rape; [20],5
COc1ccc(-n2c(=O)on(C(=O)N(c3ccc(F)cc3)C(C)C)c2=O)cc1 [Compound 5],Giant foxtail plant response rating,giant foxtail; [10],7
same,Giant foxtail plant response rating,giant foxtail; [21],7
same,"Plant response rating, Giant foxtail",giant foxtail; [13],7
same,"Plant response rating, Giant foxtail",giant foxtail; [14],8
same,Giant foxtail plant response rating,giant foxtail; [22],9
same,Giant foxtail plant response rating,giant foxtail; [16],1
same,Giant foxtail plant response rating,giant foxtail; [23],4
same,"Plant response rating, Giant foxtail",giant foxtail; [24],10
same,Morningglory plant response rating,morningglory; [10],3
same,Morningglory plant response rating,morningglory; [21],9
same,"Plant response rating, Morningglory",morningglory; [13],0
same,"Plant response rating, Morningglory",morningglory; [14],0
same,Morningglory plant response rating,morningglory; [22],0
same,Morningglory plant response rating,morningglory; [16],2
same,"Plant response rating, Morningglory",morningglory; [24],0
same,Redroot pigweed plant response rating,pigweed; [10],7
same,Redroot pigweed plant response rating,pigweed; [21],8
same,"Plant response rating, Redroot pigweed",pigweed; [13],6
same,"Plant response rating, Redroot pigweed",pigweed; [14],7
same,Redroot pigweed plant response rating,pigweed; [22],7
same,Redroot pigweed plant response rating,pigweed; [16],7
same,Redroot pigweed plant response rating,pigweed; [23],7
same,"Plant response rating, Redroot pigweed",pigweed; [24],10
same,Rape plant response rating,rape; [10],5
same,Rape plant response rating,rape; [21],5
same,"Plant response rating, Rape",rape; [13],0
same,"Plant response rating, Rape",rape; [14],0
same,Rape plant response rating,rape; [22],0
same,Rape plant response rating,rape; [16],5
same,Rape plant response rating,rape; [23],4
same,"Plant response rating, Rape",rape; [24],0
CCOC(=O)C(C)N(C(=O)n1oc(=O)n(-c2ccccc2C)c1=O)c1ccc(F)cc1 (centres unmarked) [Compound 247],Giant foxtail plant response rating,giant foxtail; [21],0
same,Giant foxtail plant response rating,giant foxtail; [14],2
same,"Plant response rating, Giant foxtail",giant foxtail; [19],3
same,Giant foxtail plant response rating,giant foxtail; [25],0
same,"Plant response rating (0 to 10; 0 is no effect, 10 is complete control), Giant foxtail","giant foxtail; Rate 250 g/ha, Postemergence",0
same,Giant foxtail plant response rating,giant foxtail; [20],0
same,"Plant response rating, Giant foxtail",giant foxtail; [24],7
same,Morningglory plant response rating,morningglory; [21],4
same,Morningglory plant response rating,morningglory; [14],0
same,"Plant response rating, Morningglory",morningglory; [19],0
same,Morningglory plant response rating,morningglory; [25],0
same,"Plant response rating (0 to 10; 0 is no effect, 10 is complete control), Morningglory","morningglory; Rate 250 g/ha, Postemergence",2
same,Morningglory plant response rating,morningglory; [20],2
same,"Plant response rating, Morningglory",morningglory; [24],0
same,Redroot pigweed plant response rating,pigweed; [21],0
same,Redroot pigweed plant response rating,pigweed; [14],0
same,"Plant response rating, Redroot pigweed",pigweed; [19],0
same,Redroot pigweed plant response rating,pigweed; [25],0
same,"Plant response rating (0 to 10; 0 is no effect, 10 is complete control), Redroot pigweed","pigweed; Rate 250 g/ha, Postemergence",0
same,Redroot pigweed plant response rating,pigweed; [20],0
same,"Plant response rating, Redroot pigweed",pigweed; [24],0
same,Rape plant response rating,rape; [21],0
same,Rape plant response rating,rape; [14],0
same,"Plant response rating, Rape",rape; [19],0
same,Rape plant response rating,rape; [25],0
same,"Plant response rating (0 to 10; 0 is no effect, 10 is complete control), Rape","rape; Rate 250 g/ha, Postemergence",0
same,Rape plant response rating,rape; [20],0
same,"Plant response rating, Rape",rape; [24],0
